{"source": "patent US20190330607A1", "about": "“USE OF A SUGAR TOLERANT BETA-GLUCOSIDASE” (Universitè de Liége, priority 2016, published 2019)", "molecules": {"B1": {"name": "BglC: recombinant His-tagged beta glucosidase of Streptomyces scabies 87-22, SEQ ID NO:2 (protein, listed as Streptomyces scabiei)", "chain": "MPEPVNPATPVTFPPAFLWGAATSAYQIEGAVREDGRTPSIWDTFSHTPGKTAGGENGDIAVDHYHRYRDDVAMMADLGLNAYRFSVSWSRVQPTGRGPAVQKGLDFYRRLVDELLAKGIKPAVTLYHWDLPQELEDAGGWPERDIVHRFAEYARIMGEALGDRVEQWITLNEPWCTAFLGYGSGVHAPGRTDPVASLRAAHHLNVAHGLGVSALRSAMPARNSIAVSLNSSVVRPITSSPEDRAAARKIDDLANGVFHGPMLHGAYPETLFAATSSLTDWSFVRDGDVATAHQPLDALGLNYYTPALVGAADAGLEGPRADGHGASEHSPWPAADDVLFHQTPGERTEMGWTIDPTGLHELIMRYAREAPGLPMYVTENGAAYDDKMDADGRVHDPERIAYLHGHLRAVRRAIAEGADVRGYYLWSLMDNFEWAYGYGKRFGAVYVDYATLTRTPKSSAHWYGQAAKTGALPPLAPAPA", "modifications": "His6 tag"}}, "assay_type_in_all_cases": "biochemical", "key": {"[1]": {"tested_on": "BglC (beta-glucosidase of Streptomyces scabies 87-22)", "assay": "Relative enzyme activity of BglC with p-NPβG as substrate in presence of tested reagent", "protocol": "(§1) Relative enzyme activity was determined using p-nitrophenyl-β-D-glucopyranoside (p-NPβG) as substrate. The reaction mixture (200 μL) containing 50 mM HEPES buffer (pH 7.5), 0.2 μM of purified BglC and the tested reagent was incubated 10 minutes at 25° C. before addition of 1 mM p-NPβG. The reaction was carried out at 25° C. for 2 minutes and stopped by addition of 100 μL of 2 M Na2CO3. All assays were performed under these conditions, unless otherwise indicated. The release of p-nitrophenol (p-NP) was measured at 405 nm with a TECAN Infinite® 200 PRO. The activity assayed in absence of the tested reagent was recorded as 100%."}, "[2]": {"assay": "Kinetic analysis of BglC on cellobiose (glucose released, D-Glucose HK Assay Kit)", "protocol": "Kinetic parameters of BglC (Km and kcat) were determined by measuring the glucose released at various cellobiose concentrations in 50 mM HEPES buffer pH 7.5 at 26° C. Reaction time of 7 min was chosen to ensure initial rates of hydrolysis. The glucose released was determined using the D-Glucose HK Assay Kit from Megazyme (Ireland). Data were fitted to the Henri-Michaelis-Menten equation using the GraphPad Prism 5 software."}, "[3]": {"assay": "Effect of temperature and pH on BglC activity (p-NPβG)", "protocol": "as §1\nThe optimal temperature was determined by measuring the relative enzyme activity of BglC in HEPES 50 mM pH 7.5 at 20, 25, 30, 37 and 42° C. To measure the effect of pH on activity of BglC, relative activity was essayed in the range of pH 5.0-6.5 (50 mM MES buffer), pH 7.0-8.5 (50 mM HEPES buffer) and pH 9-10 (50 mM CHES buffer) at 25° C."}, "[4]": {"assay": "Substrate specificity of BglC by thin layer chromatography", "details": "30° C.", "protocol": "The cleavage ability of BglC was tested against different cello-oligosaccharides (cellobiose, cellotriose, cellotetraose, cellopentaose and cellohexaose (Megazyme; Ireland)) or different disaccharides (lactose, saccharose, maltose, threalose and turanose). Reaction mixtures (100 μL) containing 50 mM HEPES buffer pH 7.5, 0.4 μM of purified BglC, 6.25 mM of cello-oligosaccharides or 12.5 mM of disaccharides were incubated at 30° C. 15 μL of each sample were collected at 0, 15, 30 and 60 min than heated at 98° C. for 5 min to stop the reaction. Each sample was spotted onto aluminum-backed Silica gel plate (Sigma). The plates were developed with chloroform-methanol-acetic acid-water solvent (50:50:15:5, vol/vol), air dried, dipped in 5% H2SO4 in ethanol and finally heated over a hot plate until visualization of carbohydrate spots."}, "[5]": {"assay": "Time course of cellobiose hydrolysis by BglC over 7 days, HPLC", "protocol": "Glucose and cellobiose analysis was performed by HPLC on an Aminex HPX-87P Column (300×7.8 mm) heated to 80° C. with H2O as eluent (flow rate 0.6 mL/min). Peaks were detected by refractive index detector (Waters 2414).\nThe tolerance of BglC to glucose was further investigated during prolonged reaction time (7 days). Cellobiose and glucose quantification were performed by HPLC (FIG. 5). 80% of cellobiose was hydrolyzed in 48 h (FIG. 5)."}, "[6]": {"details": "reagent 10%, activity without additive = 100%"}, "[7]": {"details": "Oses (15%), control = 100%, p-NPβG substrate"}, "[8]": {"details": "reagent 10 mM, activity without additive = 100%"}, "[9]": {"details": "substrate cellobiose, 50 mM HEPES pH 7.5, 26° C."}}, "note": "Read-outs that look alike come from different tables or passages of the source.", "data": [{"molecule": "CCO", "note": "[Ethanol, ethanol]", "values": [{"measurement": "ethanol concentration with maximal enhancing activity", "setting": "[1]; ethanol 0 to 40% tested (FIG. 6)", "value": 15, "unit": "%"}, {"measurement": "Relative initial rate of hydrolysis (%)", "setting": "[1]; [6]", "value": "218 ± 6", "unit": "%"}]}, {"molecule": "O=C(CO)[C@@H](O)[C@H](O)[C@H](O)CO", "note": "[Fructose, fructose]", "values": [{"measurement": "Relative initial rate of hydrolysis (%)", "setting": "[1]; [7]", "value": "178 ± 9", "unit": "%"}]}, {"molecule": "OC[C@@H](O)[C@@H](O)[C@H](O)[C@@H](O)CO", "note": "[Sorbitol, sorbitol]", "values": [{"measurement": "Relative initial rate of hydrolysis (%)", "setting": "[1]; [7]", "value": "202 ± 1", "unit": "%"}]}, {"molecule": "NC(N)=O", "note": "[Urea, urea]", "values": [{"measurement": "Relative initial rate of hydrolysis (%)", "setting": "[1]; [8]", "value": "103 ± 13", "unit": "%"}]}, {"molecule": "O=C(O)CN(CCN(CC(=O)O)CC(=O)O)CC(=O)O", "note": "[EDTA, ethylene diamine tetraacetic acid]", "values": [{"measurement": "Relative initial rate of hydrolysis (%)", "setting": "[1]; [8]", "value": "98 ± 15", "unit": "%"}]}, {"molecule": "O=C[C@H](O)[C@@H](O)[C@H](O)CO", "note": "[Xylose, xylose]", "values": [{"measurement": "Relative initial rate of hydrolysis (%)", "setting": "[1]; [7]", "value": "340 ± 20", "unit": "%"}, {"measurement": "maximal activity of BglC", "setting": "[1]; xylose 0.3 to 1.6 M (FIG. 4)", "value": "300-350%"}]}, {"molecule": "CCCCCCCCCCCCOS(=O)(=O)[O-].[Na+]", "note": "[SDS]", "values": [{"measurement": "Relative initial rate of hydrolysis (%)", "setting": "[1]; [8]", "value": "64 ± 3", "unit": "%"}]}, {"molecule": "CO", "note": "[Methanol, methanol]", "values": [{"measurement": "Relative initial rate of hydrolysis (%)", "setting": "[1]; [6]", "value": "65 ± 6", "unit": "%"}]}, {"molecule": "[Cl-].[Na+]", "note": "[NaCl]", "values": [{"measurement": "activity of BglC kept", "setting": "[1]; NaCl 500 mM (FIG. 7)", "value": "around 70%"}, {"measurement": "activity of BglC", "setting": "[1]; NaCl 1 M (FIG. 7)", "value": "about 50%"}, {"measurement": "effect on capacity of the enzyme to hydrolyze p-NPβG", "setting": "[1]; NaCl below 100 mM (FIG. 7)", "value": "does not significantly alter"}]}, {"molecule": "O=C[C@H](O)[C@@H](O)[C@@H](O)[C@H](O)CO", "note": "[Galaclose, galactose]", "values": [{"measurement": "Relative initial rate of hydrolysis (%)", "setting": "[1]; [7]", "value": "255 ± 9", "unit": "%"}]}, {"molecule": "O[C@H](CS)[C@H](O)CS", "note": "(racemic) [DTT, dithiothreitol]", "values": [{"measurement": "Relative initial rate of hydrolysis (%)", "setting": "[1]; [8]", "value": "116 ± 5", "unit": "%"}]}, {"molecule": "B1", "values": [{"measurement": "Vmax", "setting": "[2]", "value": 7.3, "unit": "µmol/min/mg"}, {"measurement": "Km", "setting": "[2]; [9]", "value": 770, "unit": "µM"}, {"measurement": "Vmax", "setting": "[2]; [9]", "value": 7.3, "unit": "µmol/min/mg"}, {"measurement": "kcat", "setting": "[2]; [9]", "value": 6.67, "unit": "s⁻¹"}, {"measurement": "optimal pH", "setting": "[3]; 25° C., pH 5-10 tested", "value": "around 7.5"}, {"measurement": "activity relative to maximal activity", "setting": "[3]; 42° C., HEPES 50 mM pH 7.5 (FIG. 3A)", "value": 10, "unit": "%"}, {"measurement": "hydrolysis of cellobiose and cello-oligosaccharides (cellotriose to cellohexaose)", "setting": "[4]; 6.25 mM substrate, 0.4 μM BglC, 0-60 min (FIG. 2)", "value": "able to generate glucose"}, {"measurement": "hydrolysis of other disaccharides (saccharose, maltose, threalose, turanose)", "setting": "[4]; 12.5 mM disaccharides", "value": "did not reveal hydrolysis"}, {"measurement": "hydrolysis of lactose", "setting": "[4]; 12.5 mM, compared with cellobiose or cello-oligosaccharides", "value": "much less efficiency"}, {"measurement": "transglycosylation activity", "setting": "[5]; between glucose and cellobiose, 7 days reaction, glucose only product detected", "value": "no or reduced transglycosylation activity"}, {"measurement": "cellobiose hydrolyzed", "setting": "[5]; in 48 h (FIG. 5)", "value": 80, "unit": "%"}]}]}
